One molecule from patent publication US12643899B2, “Antiviral agents, uses thereof and methods for their preparation” (The University of British Columbia, priority 2020, dated 2026) can be followed below.

The IC50 is the point on the concentration scale where inhibition reaches its midpoint.

What all share (test): microbe, parasite or virus in culture
What all share (type): cell-based

The subject of experiment [1] is SARS-CoV-2 Wuhan strain from VIDO (SB). To be noted: Severe acute respiratory syndrome coronavirus 2, Calu-3.
For experiment [2], the system named is SARS-CoV-2 South Africa (501Y.V2). As to conditions: Severe acute respiratory syndrome coronavirus 2, Calu-3.
Another experiment deals with SARS-CoV-2 Nigeria (484). As to conditions: Severe acute respiratory syndrome coronavirus 2, Calu-3.
The subject of experiment [3] is SARS-CoV-2 England (VOC 202012/01).

In the case of `COc1c2n(c3ccccc13)[C@]1(O)C(=O)N(C)C(=O)[C@]1(O)c1c-2[nH]c2ccc(Cl)cc12` [CA, (11S,15R)-7-chloro-11,15-dihydroxy-23-methoxy-13-methyl-3,13,16-triazahexacyclo[14.7.0.0^2,10.0^4,9.0^11,15.0^17,22]tricosa-1(23),2(10),4(9),5,7,17,19,21-octaene-12,14-dione], the IC50 turned out to be 0.0577 µM in experiment [1]; 0.0123 µM in experiment [2]; 0.0122 µM in the experiment with SARS-CoV-2 Nigeria (484); 0.000801 µM in experiment [3] (Severe acute respiratory syndrome coronavirus 2, Calu-3). In addition, in experiment [3] (Severe acute respiratory syndrome coronavirus 2, Calu-3, read-out: ED50), the EC50 is about 0.0008 µM.
